{"source": "patent US10765114B2", "about": "“4-amino-6-(pyridyl and 2-substitutedphenyl)-picolinates and 6-amino-2-(pyridyl and 2-substitutedphenyl)-pyrimidine-4-carboxylates and their use as herbicides” (Dow AgroSciences LLC, priority 2013, dated 2020)", "experiment_in_all_cases": "Post-Emergent Test III (Wheat and Barley)", "key": {"[1]": {"system": "LAMPU (purple deadnettle)", "format": "in vivo, Lamium purpureum", "conditions": "for Visual Growth Reduction (%) 21 Days After Application, LAMPU: LAMPU purple deadnettle (Lamium purpureum), post-emergent", "protocol": "(§1) Seeds of the desired test plant species were planted in Sun Gro MetroMix® 306 planting mixture, which typically has a pH of 6.0 to 6.8 and an organic matter content of about 30 percent, in plastic pots with a surface area of 103.2 square centimeters (cm^2). When required to ensure good germination and healthy plants, a fungicide treatment and/or other chemical or physical treatment was applied. The plants were grown for 7-36 days in a greenhouse with an approximate 14 h photoperiod which was maintained at about 18° C. during the day and 17° C. during the night. Nutrients and water were added on a regular basis and supplemental lighting was provided with overhead metal halide 1000-Watt lamps as necessary. The plants were employed for testing when they reached the second or third true leaf stage.\n(§2) A weighed amount, determined by the highest rate to be tested, of each test compound was placed in a 25 mL glass vial and was dissolved in 4 mL of a 97:3 v/v mixture of acetone and DMSO to obtain concentrated stock solutions. […] The concentrated stock solutions obtained were diluted with 20 mL of an aqueous mixture containing acetone, water, isopropyl alcohol, DMSO, Agri-Dex crop oil concentrate, and X-77 surfactant in a 48:39:10:1.5:1.5:0.02 v/v ratio to obtain spray solutions containing the highest application rates. Additional application rates were obtained by serial dilution of 12 mL of the high rate solution into a solution containing 2 mL of 97:3 v/v mixture of acetone and DMSO and 10 mL of an aqueous mixture containing acetone, water, isopropyl alcohol, DMSO, Agri-Dex crop oil concentrate, and X-77 surfactant in a 48:39:10:1.5:1.5:0.02 v/v ratio to obtain ½×, ¼×, ⅛× and 1/16× rates of the high rate. Compound requirements are based upon a 12 mL application volume at a rate of 187 liters per hectare (L/ha). Formulated compounds were applied to the plant material with an overhead Mandel track sprayer equipped with 8002E nozzles calibrated to deliver 187 L/ha over an application area of 0.503 square meters at a spray height of 18 inches (43 cm) above the average plant canopy height. Control plants were sprayed in the same manner with the solvent blank.\n(§3) The treated plants and control plants were placed in a greenhouse as described above and watered by subirrigation to prevent wash-off of the test compounds. After 21 dAYS, the condition of the test plants as compared with that of the untreated plants was determined visually and scored on a scale of 0 to 100 percent where 0 corresponds to no injury and 100 corresponds to complete kill and presented as indicated in Table A.\n(§4) By applying the well-accepted probit analysis as described by J. Berkson in Journal of the American Statistical Society, 48, 565 (1953) and by D. Finney in “Probit Analysis” Cambridge University Press (1952), herbicidal injury of a specific compound at various rates can be used to calculate GR10, GR20, GR50, GR80 and GR90 values, which are defined as growth reduction factors that correspond to the effective dose of herbicide required to provide plant growth reduction (GR) of 10 percent, 20 percent, 50 percent, 80 percent and 90 percent, respectively. Probit analysis was applied to data collected from multiple dose rates of individual compounds utilizing the procedures explained in the following examples. The analysis of those dose rates is captured in the following tables."}, "TRZSS": {"system": "TRZSS", "format": "in vivo", "conditions": "crop; for Visual Growth Reduction (%) 21 Days After Application, TRZSS: TRZSS wheat (Triticum aestivum), post-emergent", "protocol": "as §1, §2, §3, §4"}, "HORSS": {"system": "HORSS", "format": "in vivo", "conditions": "crop; for Visual Growth Reduction (%) 21 Days After Application, HORSS: HORSS barley (Hordeum vulgare), post-emergent", "protocol": "as §1, §2, §3, §4"}, "PAPRH (common poppy)": {"system": "PAPRH (common poppy)", "format": "in vivo, Papaver rhoeas", "conditions": "for Visual Growth Reduction (%) 21 Days After Application, PAPRH: PAPRH common poppy (Papaver rhoeas), post-emergent", "protocol": "as §1, §2, §3, §4"}, "KCHSC (kochia)": {"system": "KCHSC (kochia)", "format": "in vivo, Kochia scoparia", "protocol": "as §1, §2, §3, §4"}, "SASKR (Russian thistle)": {"system": "SASKR (Russian thistle)", "format": "in vivo, Salsola tragus", "conditions": "for Visual Growth Reduction (%) 21 Days After Application, SASKR: SASKR Russian thistle (Salsola iberica), post-emergent", "protocol": "as §1, §2, §3, §4"}, "POLCO (wild buckwheat)": {"system": "POLCO (wild buckwheat)", "format": "in vivo, Polygonum convolvulus", "conditions": "for Visual Growth Reduction (%) 21 Days After Application, POLCO: POLCO wild buckwheat (Polygonum convolvulus), post-emergent", "protocol": "as §1, §2, §3, §4"}, "[2]": {"system": "VERPE (Persian speedwell)", "format": "in vivo, Veronica persica", "conditions": "for Visual Growth Reduction (%) 21 Days After Application, VERPE: VERPE bird's-eye speedwell (Veronica persica), post-emergent", "protocol": "as §1, §2, §3, §4"}}, "data": [{"smiles": "Nc1cc(-c2ccc(Cl)c(Cl)c2Cl)nc(C(=O)O)c1Cl", "note": "[Compound 93]", "values": [{"measurement": "Visual Growth Reduction (%) 21 Days After Application, LAMPU", "setting": "[1]; 17.5 g ai/ha", "result": "A (95-100)"}, {"measurement": "Visual Growth Reduction (%) 21 Days After Application, LAMPU", "setting": "[1]; 35 g ai/ha", "result": "A (95-100)"}, {"measurement": "Visual Growth Reduction (%) 21 Days After Application, LAMPU", "setting": "[1]; 70 g ai/ha", "result": "A (95-100)"}, {"measurement": "GR50, LAMPU", "setting": "[1]; LAMPU, growth reduction of 50%, probit analysis, 21 days", "result": 1, "unit": "g ai/ha"}, {"measurement": "GR80, LAMPU", "setting": "[1]; LAMPU, growth reduction of 80%, probit analysis, 21 days", "result": 2, "unit": "g ai/ha"}, {"measurement": "GR90, LAMPU", "setting": "[1]; LAMPU, growth reduction of 90%, probit analysis, 21 days", "result": 8, "unit": "g ai/ha"}, {"measurement": "Visual Growth Reduction (%) 21 Days After Application, TRZSS", "setting": "TRZSS; 17.5 g ai/ha", "result": "C (75-84)"}, {"measurement": "Visual Growth Reduction (%) 21 Days After Application, TRZSS", "setting": "TRZSS; 35 g ai/ha", "result": "B (85-94)"}, {"measurement": "Visual Growth Reduction (%) 21 Days After Application, TRZSS", "setting": "TRZSS; 70 g ai/ha", "result": "B (85-94)"}, {"measurement": "GR10, TRZSS", "setting": "TRZSS; TRZSS wheat, growth reduction of 10%, probit analysis, 21 days", "result": 1, "unit": "g ai/ha"}, {"measurement": "GR20, TRZSS", "setting": "TRZSS; TRZSS wheat, growth reduction of 20%, probit analysis, 21 days", "result": 1, "unit": "g ai/ha"}, {"measurement": "Visual Growth Reduction (%) 21 Days After Application, HORSS", "setting": "HORSS; 17.5 g ai/ha", "result": "C (75-84)"}, {"measurement": "Visual Growth Reduction (%) 21 Days After Application, HORSS", "setting": "HORSS; 35 g ai/ha", "result": "B (85-94)"}, {"measurement": "Visual Growth Reduction (%) 21 Days After Application, HORSS", "setting": "HORSS; 70 g ai/ha", "result": "B (85-94)"}, {"measurement": "GR10, HORSS", "setting": "HORSS; HORSS barley, growth reduction of 10%, probit analysis, 21 days", "result": 1, "unit": "g ai/ha"}, {"measurement": "GR20, HORSS", "setting": "HORSS; HORSS barley, growth reduction of 20%, probit analysis, 21 days", "result": 1, "unit": "g ai/ha"}, {"measurement": "Visual Growth Reduction (%) 21 Days After Application, PAPRH", "setting": "PAPRH (common poppy); 17.5 g ai/ha", "result": "C (75-84)"}, {"measurement": "Visual Growth Reduction (%) 21 Days After Application, PAPRH", "setting": "PAPRH (common poppy); 35 g ai/ha", "result": "C (75-84)"}, {"measurement": "Visual Growth Reduction (%) 21 Days After Application, PAPRH", "setting": "PAPRH (common poppy); 70 g ai/ha", "result": "B (85-94)"}, {"measurement": "GR50, PAPRH", "setting": "PAPRH (common poppy); PAPRH, growth reduction of 50%, probit analysis, 21 days", "result": 1, "unit": "g ai/ha"}, {"measurement": "GR80, PAPRH", "setting": "PAPRH (common poppy); PAPRH, growth reduction of 80%, probit analysis, 21 days", "result": 27, "unit": "g ai/ha"}, {"measurement": "GR90, PAPRH", "setting": "PAPRH (common poppy); PAPRH, growth reduction of 90%, probit analysis, 21 days", "result": ">140", "unit": "g ai/ha"}, {"measurement": "pest or weed control at 17.5 g/ha", "setting": "KCHSC (kochia); Bassia scoparia, post-emergence, 504 h, KCHSC kochia (Kochia scoparia), 17.5 g ai/ha, post-emergent, read-out: Visual Growth Reduction (%) 21 Days After Application, KCHSC", "result": "85 to 94", "unit": "%"}, {"measurement": "pest or weed control at 35 g/ha", "setting": "KCHSC (kochia); Bassia scoparia, post-emergence, 504 h, KCHSC kochia (Kochia scoparia), 35 g ai/ha, post-emergent, read-out: Visual Growth Reduction (%) 21 Days After Application, KCHSC", "result": "85 to 94", "unit": "%"}, {"measurement": "pest or weed control at 70 g/ha", "setting": "KCHSC (kochia); Bassia scoparia, post-emergence, 504 h, KCHSC kochia (Kochia scoparia), 70 g ai/ha, post-emergent, read-out: Visual Growth Reduction (%) 21 Days After Application, KCHSC", "result": "95 to 100", "unit": "%"}, {"measurement": "GR50, KCHSC", "setting": "KCHSC (kochia); KCHSC, growth reduction of 50%, probit analysis, 21 days", "result": 2, "unit": "g ai/ha"}, {"measurement": "GR80, KCHSC", "setting": "KCHSC (kochia); KCHSC, growth reduction of 80%, probit analysis, 21 days", "result": 10, "unit": "g ai/ha"}, {"measurement": "GR90, KCHSC", "setting": "KCHSC (kochia); KCHSC, growth reduction of 90%, probit analysis, 21 days", "result": 27, "unit": "g ai/ha"}, {"measurement": "Visual Growth Reduction (%) 21 Days After Application, SASKR", "setting": "SASKR (Russian thistle); 17.5 g ai/ha", "result": "B (85-94)"}, {"measurement": "Visual Growth Reduction (%) 21 Days After Application, SASKR", "setting": "SASKR (Russian thistle); 35 g ai/ha", "result": "B (85-94)"}, {"measurement": "Visual Growth Reduction (%) 21 Days After Application, SASKR", "setting": "SASKR (Russian thistle); 70 g ai/ha", "result": "B (85-94)"}, {"measurement": "GR50, SASKR", "setting": "SASKR (Russian thistle); SASKR, growth reduction of 50%, probit analysis, 21 days", "result": 1, "unit": "g ai/ha"}, {"measurement": "GR80, SASKR", "setting": "SASKR (Russian thistle); SASKR, growth reduction of 80%, probit analysis, 21 days", "result": 10, "unit": "g ai/ha"}, {"measurement": "GR90, SASKR", "setting": "SASKR (Russian thistle); SASKR, growth reduction of 90%, probit analysis, 21 days", "result": 34, "unit": "g ai/ha"}, {"measurement": "Visual Growth Reduction (%) 21 Days After Application, POLCO", "setting": "POLCO (wild buckwheat); 17.5 g ai/ha", "result": "B (85-94)"}, {"measurement": "Visual Growth Reduction (%) 21 Days After Application, POLCO", "setting": "POLCO (wild buckwheat); 35 g ai/ha", "result": "B (85-94)"}, {"measurement": "Visual Growth Reduction (%) 21 Days After Application, POLCO", "setting": "POLCO (wild buckwheat); 70 g ai/ha", "result": "A (95-100)"}, {"measurement": "GR50, POLCO", "setting": "POLCO (wild buckwheat); POLCO, growth reduction of 50%, probit analysis, 21 days", "result": 2, "unit": "g ai/ha"}, {"measurement": "GR80, POLCO", "setting": "POLCO (wild buckwheat); POLCO, growth reduction of 80%, probit analysis, 21 days", "result": 7, "unit": "g ai/ha"}, {"measurement": "GR90, POLCO", "setting": "POLCO (wild buckwheat); POLCO, growth reduction of 90%, probit analysis, 21 days", "result": 13, "unit": "g ai/ha"}, {"measurement": "Visual Growth Reduction (%) 21 Days After Application, VERPE", "setting": "[2]; 17.5 g ai/ha", "result": "E (45-59)"}, {"measurement": "Visual Growth Reduction (%) 21 Days After Application, VERPE", "setting": "[2]; 35 g ai/ha", "result": "D (60-74)"}, {"measurement": "Visual Growth Reduction (%) 21 Days After Application, VERPE", "setting": "[2]; 70 g ai/ha", "result": "D (60-74)"}, {"measurement": "GR50, VERPE", "setting": "[2]; VERPE, growth reduction of 50%, probit analysis, 21 days", "result": 24, "unit": "g ai/ha"}, {"measurement": "GR80, VERPE", "setting": "[2]; VERPE, growth reduction of 80%, probit analysis, 21 days", "result": ">140", "unit": "g ai/ha"}, {"measurement": "GR90, VERPE", "setting": "[2]; VERPE, growth reduction of 90%, probit analysis, 21 days", "result": ">140", "unit": "g ai/ha"}]}]}
